Patent publication US9012493B2, “1-heterodiene derivative and pest control agent” (Nippon Soda Co., Ltd., priority 2009, dated 2015)

How the values were obtained:
Format in all cases: in vivo
[1] = test system: Sweetpotato Whitefly (Bemisia Tabaci); assay: Efficacy test against sweetpotato whitefly, sprayed tomato leaf; conditions: 125 ppm, emulsifiable concentrate diluted with water, adults (type B), after 2 days, 25° C.
Summary of the method: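 Cut tomato leaves were sprayed with an emulsifiable concentrate diluted to 125 ppm compound, air-dried, then infested with seven pairs of type B adults. Leaves were held at 25 °C and 65% humidity, and mortality was counted after 2 days as dead/released × 100. The test was run twice.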

[2] = test system: Cotton Aphid (Aphis Gossypii); assay: Efficacy test against cotton aphid, spray on cucumber plant; conditions: 125 ppm, emulsifiable concentrate diluted with water, sprayed over cucumber plant with nymphs, after 5 days, 25° C.
Protocol: Test Examples of the pest control agent thus obtained according to the present invention are shown below. In respective Test Examples, the insecticidal rate (%) was determined by the following calculation equation. Insecticidal rate (%)=(number of dead pests/number of released pests)×100
The emulsifiable concentrate obtained according to Formulation of Formulation Example 2 was diluted with water so as to control the concentration of the compound to 125 ppm. Adults of cotton aphids were inoculated to a cucumber plant (approximately 10 days after sprouting) sown in a 3 sun/size pot (9 cm). After 1 day, adult aphids were removed and the diluted solution was sprayed over the cucumber plant on which delivered nymphs are parasitic. The pot was placed in a temperature-controlled room at a temperature of 25° C. and a humidity of 65%. After 5 days, life and death were examined and the insecticidal rate was determined. The test was repeated twice.

[3] = test system: Twospotted Spider Mite (Tetranychus Urticae Koch); assay: Efficacy test against twospotted spider mite, spray on kidney bean plant; conditions: 125 ppm, wettable powder diluted with water, sprayed, female adults with resistance to an organophosphorus agent on kidney bean, after 3 days
Protocol: The wettable powder obtained according to Formulation of Formulation Example 1 was diluted with water so as to control the concentration of the compound to 125 ppm. Seventeen female adults of twospotted spider mite with resistance to an organophosphorus agent were inoculated on a first true leaf of a kidney bean plant (approximately 7 to 10 days after sprouting) sown in a 3 sun/size pot (9 cm). The diluted solution was sprayed. The pot was placed in a temperature-controlled room at a temperature of 25° C. and a humidity of 65%. After 3 days, the adulticidal rate was examined. The test was repeated twice.

[4] = test system: Rice Armyworm (Mythimna Separata); assay: Efficacy test against rice armyworm, corn leaf dip; conditions: 125 ppm, emulsifiable concentrate diluted with water, corn leaves immersed, second instar larvae, after 5 days, 25° C.
Summary of the method: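 Corn leaves dipped 30 s in compound diluted to 125 ppm from an emulsifiable concentrate, air-dried, then offered to five second-instar larvae. Held at 25° C and 65% humidity; mortality scored after 5 days as dead/released ×100. Run in duplicate.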

C=C1SC(=Nc2cccc(C(F)(F)F)c2)C(=CSc2ccccc2)CC1(C)C [Compound 2-36]
100%: insecticidal rate [1] | insecticidal rate [2] | adulticidal rate [3] | insecticidal rate [4]

C=C1SC(=Nc2ccc(OC)cc2C)C(=CSc2ccccc2)CC1(C)C [Compound 2-40]
100%: insecticidal rate [1] | insecticidal rate [2] | adulticidal rate [3] | insecticidal rate [4]

C=C1SC(=Nc2ccc(OC)cc2C)C(=CSc2ccc(F)cc2)CC1(C)C [Compound 2-41]
100%: insecticidal rate [1] | insecticidal rate [2] | adulticidal rate [3] | insecticidal rate [4]

C=C1SC(=Nc2ccc(OC)cc2)C(=CSc2ccc(F)cc2)CC1(C)C [Compound 2-46]
100%: insecticidal rate [1] | insecticidal rate [2] | adulticidal rate [3] | insecticidal rate [4]

C=C1SC(=Nc2ccc(C)cc2)C(=CSc2ccc(F)cc2)CC1(C)C [Compound 2-48]
100%: insecticidal rate [1] | insecticidal rate [2] | adulticidal rate [3] | insecticidal rate [4]

C=C1SC(=Nc2ccc(OC)cc2)C(=CSc2ccccc2OC)CC1(C)C [Compound 2-49]
100%: insecticidal rate [1] | insecticidal rate [2] | adulticidal rate [3] | insecticidal rate [4]

C=C1SC(=Nc2ccc(C)cc2)C(=CSc2ccccc2)CC12CCOCC2 [Compound 2-56]
100%: insecticidal rate [1] | insecticidal rate [2] | adulticidal rate [3] | insecticidal rate [4]

C=C1SC(=Nc2ccc(C)cc2C)C(=CSc2ccccc2)CC1(C)C [Compound 2-64]
100%: insecticidal rate [1] | insecticidal rate [2] | adulticidal rate [3] | insecticidal rate [4]

C=C1SC(=Nc2ccc(C)cc2)C(=CSc2ccccc2)CC1CC (stereo not shown) [Compound 2-68]
100%: insecticidal rate [1] | insecticidal rate [2] | adulticidal rate [3] | insecticidal rate [4]

C=C1SC(=Nc2ccc(OC)cc2)C(=CSc2ccc(C#N)cc2)CC1(C)C [Compound 2-70]
100%: insecticidal rate [1] | insecticidal rate [2] | adulticidal rate [3] | insecticidal rate [4]

C=C1SC(=Nc2ccc(C)cc2)C(=CSc2cccs2)CC1(C)C [Compound 2-71]
100%: insecticidal rate [1] | insecticidal rate [2] | adulticidal rate [3] | insecticidal rate [4]

C=C1SC(=Nc2ccc(C)cc2)C(=CSc2ccc(C#N)cc2)CC1(C)C [Compound 2-72]
100%: insecticidal rate [1] | insecticidal rate [2] | adulticidal rate [3] | insecticidal rate [4]

C=C1SC(=Nc2ccc(C)cc2)C(=CSc2ccccc2)CC1CCC (stereo not shown) [Compound 2-75]
100%: insecticidal rate [1] | insecticidal rate [2] | adulticidal rate [3] | insecticidal rate [4]

C=C1SC(=Nc2ccc(C)cc2)C(=CSc2ccccc2)CC1C (stereo not shown) [Compound 2-76]
100%: insecticidal rate [1] | insecticidal rate [2] | adulticidal rate [3] | insecticidal rate [4]

C=C1SC(=Nc2ccc(C)cc2)C(=CSc2cccs2)CC1C (stereo not shown) [Compound 2-77]
100%: insecticidal rate [1] | insecticidal rate [2] | adulticidal rate [3] | insecticidal rate [4]

C=C1SC(=Nc2ccc(C)cc2)C(=CSc2ccsc2)CC1(C)C [Compound 2-78]
100%: insecticidal rate [1] | insecticidal rate [2] | adulticidal rate [3] | insecticidal rate [4]

C=C1SC(=Nc2ccc(C)cc2)C(=CSc2ccc(C)s2)CC1(C)C [Compound 2-79]
100%: insecticidal rate [1] | insecticidal rate [2] | adulticidal rate [3] | insecticidal rate [4]

C=C1SC(=Nc2ccc(C)cc2)C(=CSc2ccc(OC)s2)CC1(C)C [Compound 2-80]
100%: insecticidal rate [1] | insecticidal rate [2] | adulticidal rate [3] | insecticidal rate [4]

C=C1SC(=Nc2ccc(OC)cc2)C(=CSc2ccsc2)CC1(C)C [Compound 2-81]
100%: insecticidal rate [1] | insecticidal rate [2] | adulticidal rate [3] | insecticidal rate [4]

C=C1SC(=Nc2ccc(OC)cc2)C(=CSc2ccc(C)s2)CC1(C)C [Compound 2-83]
100%: insecticidal rate [1] | insecticidal rate [2] | adulticidal rate [3] | insecticidal rate [4]

C=C1SC(=Nc2ccc(C)cc2)C(=CSc2ccc(C(F)(F)F)cc2)CC1(C)C [Compound 2-90]
100%: insecticidal rate [1] | insecticidal rate [2] | adulticidal rate [3] | insecticidal rate [4]

C=C1SC(=Nc2ccc(C)cc2)C(=CSc2nc3ccccc3s2)CC1(C)C [Compound 2-94]
100%: insecticidal rate [1] | insecticidal rate [2] | adulticidal rate [3] | insecticidal rate [4]

C=C1SC(=Nc2ccc(C)cc2)C(=CSc2cccc(C(F)(F)F)c2)CC1(C)C [Compound 2-99]
100%: insecticidal rate [1] | insecticidal rate [2] | adulticidal rate [3] | insecticidal rate [4]

C=C1SC(=Nc2ccc(C)cc2)C(=CSc2ccccc2C(F)(F)F)CC1(C)C [Compound 2-100]
100%: insecticidal rate [1] | insecticidal rate [2] | adulticidal rate [3] | insecticidal rate [4]

C=C1SC(=Nc2ccc(OC)cc2)C(=CSc2ccc([Si](C)(C)C)s2)CC1(C)C [Compound 2-103]
100%: insecticidal rate [1] | insecticidal rate [2] | adulticidal rate [3] | insecticidal rate [4]

C=C1SC(=Nc2ccc(C)cc2)C(=CSc2cccc(C)c2)CC1(C)C [Compound 2-110]
100%: insecticidal rate [1] | insecticidal rate [2] | adulticidal rate [3] | insecticidal rate [4]

C=C1SC(=Nc2ccc(OC)cc2)C(=CSc2ccc(Br)s2)CC1(C)C [Compound 2-117]
100%: insecticidal rate [1] | insecticidal rate [2] | adulticidal rate [3] | insecticidal rate [4]

C=C1SC(=Nc2ccc(C)cc2)C(=CSc2ccc(F)cc2F)CC1(C)C [Compound 2-124]
100%: insecticidal rate [1] | insecticidal rate [2] | adulticidal rate [3] | insecticidal rate [4]

C=C1SC(=Nc2ccc(C)c(C)c2)C(=CSc2ccccc2)CC1(C)C [Compound 2-148]
100%: insecticidal rate [1] | insecticidal rate [2] | adulticidal rate [3] | insecticidal rate [4]

C=C1SC(=Nc2ccc(C)c(C)c2)C(=CSc2cccs2)CC1(C)C [Compound 2-149]
100%: insecticidal rate [1] | insecticidal rate [2] | adulticidal rate [3] | insecticidal rate [4]

C=C1SC(=Nc2ccc(C)c(C)c2)C(=CSc2ccc(F)cc2)CC1(C)C [Compound 2-150]
100%: insecticidal rate [1] | insecticidal rate [2] | adulticidal rate [3] | insecticidal rate [4]
